Source: publication PMC6213216, “AbeTx1 Is a Novel Sea Anemone Toxin with a Dual Mechanism of Action on Shaker-Type K^+ Channels Activation” (Marine Drugs, 2018)
Positions of bridges follow the written chain, without caps; N, C: chain ends. Residues, ends and D or L forms follow the SMILES beside them.

Key:
Type in all cases: cell-based
rKV1.1 = biological target: T1, rKV1.1 (Rattus norvegicus, UniProt P10499); test: Two-electrode voltage-clamp on Xenopus laevis oocytes expressing rKV1.1; conditions: for IC50: concentration-response curve, percentage blocked current fitted with Hill equation, TEVC oocytes, 0 mV from −90 mV, read-out: KV1.1 IC50
T1 construct: expressed in transfected cells; host or cells: Xenopus laevis oocytes injected with cRNA
Protocol: (§1) The pharmacological effect of AbeTx1 was analyzed by heterologous expression of 12 voltage-gated potassium channels isoforms (rKV1.1, Genbank NM173095; rKV1.2, Genbank NM012970; hKV1.3, Genbank L23499; rKV1.4,Genbank NM012971; rKV1.5, Genbank NM012972; rKV1.6, Genbank NM575671; Shaker IR from Drosophila melanogaster, Genbank CG12348; rKV2.1, Genbank NM013186; hKV3.1, Genbank NM004976; rKV4.2, Genbank NM031730; rKV4.3, Genbank NM031739 and hERG, Genbank NM000238), and three voltage-gated sodium channel subtypes (rNaV1.2, Genbank NM012647; rNaV1.4, Genbank M26643 and BgNaV1.1, from Blattella germanica) (r, rat; h, human) in oocytes from Xenopus laevis. The linearized plasmids were transcribed using a T7 or SP6 mMESSAGE-mMACHINE transcription kit (Life Technologies, Austin, TX, USA). Oocytes were injected with 20–50 nL of cRNA at a concentration of 1 ng·nL^−1 using a microinjector (Drummond Scientific, Broomall, PA, USA). The oocytes were stored for 1–3 days at 16 °C until sufficient expression of voltage-gated ion channels was achieved. Oocytes were maintained in an ND96 solution (in mM: 96 NaCl, 2 KCl, 1.8 CaCl2, 2 MgCl2 and 5 HEPES; pH 7.4), supplemented with 50 µg·mL^−1 gentamicin sulfate.
(§2) Two-electrode voltage-clamp recordings were performed at room temperature (18–22 °C) using a Geneclamp 500 amplifier (Molecular Devices, Sunnyvale, CA, USA) controlled by a pClamp data acquisition system (Axon Instruments, Union City, CA, USA). ND96 was used as bath solution. Whole-cell currents from oocytes were recorded 1–3 days after injection. Voltage and current electrodes were filled with KCl (3 M). The resistance of both electrodes was kept between 0.8–1.0 MΩ. The elicited currents were filtered at 0.5 or 2 kHz using a four-pole low-pass Bessel filter. Leak subtraction was performed using a -P/4 protocol. KV1.1-KV1.6 and Shaker IR currents were evoked by 500 ms depolarization to 0 mV, followed by a 500 ms pulse to −50 mV, from a holding potential of −90 mV. KV2.1, KV3.1, KV4.2, and KV4.3 currents were elicited by 500 ms pulses to + 20 mV from a holding potential of −90 mV. Current traces of hERG channels were elicited by applying a +40 mV pulse for 2.5 s, followed by a step to −120 mV for 2.5 s. Sodium current traces were evoked by 100 ms depolarization steps from a holding potential of −90 mV to 0 mV. Concentration-response curves were constructed by adding different AbeTx1 or analogs concentrations directly to the bath solution. The percentage of the KV blockade was plotted against the logarithm of the applied concentrations and fitted with the Hill Equation (1):y = 100/[1 + (IC50/[toxin]) × h](1) where y is the amplitude of the toxin-induced effect, IC50 is the toxin concentration at half-maximal efficacy, [toxin] is the toxin concentration, and h is the Hill coefficient. To investigate the effects on the voltage dependence of activation, current traces were evoked by 10 mV depolarization steps from a holding potential of −90 mV. Data were normalized to the maximal K^+ current amplitude, plotted against prepulse potential, and fitted using the Boltzmann Equation (2):IK/Imax = [1 + (exp(Vg − V)/k] − 1(2) where Imax represents maximal potassium current (IK), Vg is the voltage corresponding to half-maximal current, and k is the slope factor. Each experimental data represents mean ± standard error of at least three oocytes (n ≥ 3) from different frogs. Effect of the toxin on current-voltage experiments was statistically examined by comparing the control condition and the presence of toxin using the Student’s paired t-test. P-values < 0.05 are considered to be statistically significant. Data were analyzed using Clampfit 10.4 (Molecular Devices, Sunnyvale, CA, USA) and Origin v8.1 software (Origin Lab, Northampton, MA, USA), under the institutional license of the University of São Paulo.

rKV1.6 = biological target: T2, rKV1.6 (Rattus norvegicus, UniProt P17659); test: Two-electrode voltage-clamp on Xenopus laevis oocytes expressing rKV1.6; conditions: for IC50: concentration-response curve, percentage blocked current fitted with Hill equation, TEVC oocytes, 0 mV from −90 mV, read-out: KV1.6 IC50
T2 construct: expressed in transfected cells; host or cells: Xenopus laevis oocytes injected with cRNA
Protocol: as §1, §2

rKV1.2 = biological target: T3, rKV1.2 (Rattus norvegicus, UniProt P63142); test: Two-electrode voltage-clamp on Xenopus laevis oocytes expressing rKV1.2; conditions: 3 µM AbeTx1; TEVC, X. laevis oocytes, 500 ms depolarization to 0 mV from holding −90 mV; mean ± SE, n ≥ 3; SEM; read-out: inhibition of KV1.2 current
T3 construct: expressed in transfected cells; host or cells: Xenopus laevis oocytes injected with cRNA
Protocol: as §1, with “Oocytes were injected with 20–50 nL of cRNA at a concentration of 1 ng·nL^−1 using a microinjector (Drummond Scientific, Broomall, PA, USA). The oocytes were stored for 1–3 days at 16 °C until sufficient expression of voltage-gated ion channels was achieved. Oocytes were maintained in an ND96 solution (in mM: 96 NaCl, 2 KCl, 1.8 CaCl2, 2 MgCl2 and 5 HEPES; pH 7.4), supplemented with 50 µg·mL^−1 gentamicin sulfate.” left out
(§3) Two-electrode voltage-clamp recordings were performed at room temperature (18–22 °C) using a Geneclamp 500 amplifier (Molecular Devices, Sunnyvale, CA, USA) controlled by a pClamp data acquisition system (Axon Instruments, Union City, CA, USA). […] Whole-cell currents from oocytes were recorded 1–3 days after injection. […] Data were analyzed using Clampfit 10.4 (Molecular Devices, Sunnyvale, CA, USA) and Origin v8.1 software (Origin Lab, Northampton, MA, USA), under the institutional license of the University of São Paulo.

hKV1.3 = biological target: T4, hKV1.3 (Homo sapiens, UniProt P22001); test: Two-electrode voltage-clamp on Xenopus laevis oocytes expressing hKV1.3; conditions: 3 µM AbeTx1; TEVC, X. laevis oocytes, 500 ms depolarization to 0 mV from holding −90 mV; mean ± SE, n ≥ 3; SEM; read-out: inhibition of KV1.3 current
T4 construct: expressed in transfected cells; host or cells: Xenopus laevis oocytes injected with cRNA
Protocol: as §1, with “Oocytes were injected with 20–50 nL of cRNA at a concentration of 1 ng·nL^−1 using a microinjector (Drummond Scientific, Broomall, PA, USA). The oocytes were stored for 1–3 days at 16 °C until sufficient expression of voltage-gated ion channels was achieved. Oocytes were maintained in an ND96 solution (in mM: 96 NaCl, 2 KCl, 1.8 CaCl2, 2 MgCl2 and 5 HEPES; pH 7.4), supplemented with 50 µg·mL^−1 gentamicin sulfate.” left out
as §3

Shaker IR = biological target: T5, Shaker IR (Drosophila melanogaster, UniProt P08510, DEL6-46); test: Two-electrode voltage-clamp on Xenopus laevis oocytes expressing Shaker IR; conditions: 3 µM AbeTx1; TEVC, X. laevis oocytes, 500 ms depolarization to 0 mV from holding −90 mV; mean ± SE, n ≥ 3; SEM; read-out: inhibition of Shaker IR current
T5 construct: expressed in transfected cells; host or cells: Xenopus laevis oocytes injected with cRNA
Protocol: as §1, with “Oocytes were injected with 20–50 nL of cRNA at a concentration of 1 ng·nL^−1 using a microinjector (Drummond Scientific, Broomall, PA, USA). The oocytes were stored for 1–3 days at 16 °C until sufficient expression of voltage-gated ion channels was achieved. Oocytes were maintained in an ND96 solution (in mM: 96 NaCl, 2 KCl, 1.8 CaCl2, 2 MgCl2 and 5 HEPES; pH 7.4), supplemented with 50 µg·mL^−1 gentamicin sulfate.” left out
as §3

hERG = biological target: T6, hERG (Homo sapiens, UniProt Q12809); test: Two-electrode voltage-clamp on Xenopus laevis oocytes expressing hERG (KV11.1); conditions: 3 µM AbeTx1; TEVC, X. laevis oocytes, +40 mV pulse 2.5 s then −120 mV 2.5 s
T6 construct: expressed in transfected cells; host or cells: Xenopus laevis oocytes injected with cRNA
Protocol: as §1, with “Oocytes were injected with 20–50 nL of cRNA at a concentration of 1 ng·nL^−1 using a microinjector (Drummond Scientific, Broomall, PA, USA). The oocytes were stored for 1–3 days at 16 °C until sufficient expression of voltage-gated ion channels was achieved. Oocytes were maintained in an ND96 solution (in mM: 96 NaCl, 2 KCl, 1.8 CaCl2, 2 MgCl2 and 5 HEPES; pH 7.4), supplemented with 50 µg·mL^−1 gentamicin sulfate.” left out
as §3

rNaV1.2 = biological target: T7, rNaV1.2 (Rattus norvegicus, UniProt P04775); test: Two-electrode voltage-clamp on Xenopus laevis oocytes expressing rNaV1.2; conditions: 3 µM AbeTx1; TEVC, X. laevis oocytes, 100 ms depolarization from −90 mV to 0 mV
T7 construct: expressed in transfected cells; host or cells: Xenopus laevis oocytes injected with cRNA
Protocol: as §1, with “Oocytes were injected with 20–50 nL of cRNA at a concentration of 1 ng·nL^−1 using a microinjector (Drummond Scientific, Broomall, PA, USA). The oocytes were stored for 1–3 days at 16 °C until sufficient expression of voltage-gated ion channels was achieved. Oocytes were maintained in an ND96 solution (in mM: 96 NaCl, 2 KCl, 1.8 CaCl2, 2 MgCl2 and 5 HEPES; pH 7.4), supplemented with 50 µg·mL^−1 gentamicin sulfate.” left out
as §3

rNaV1.4 = biological target: T8, rNaV1.4 (Rattus norvegicus, UniProt P15390); test: Two-electrode voltage-clamp on Xenopus laevis oocytes expressing rNaV1.4; conditions: 3 µM AbeTx1; TEVC, X. laevis oocytes, 100 ms depolarization from −90 mV to 0 mV
T8 construct: expressed in transfected cells; host or cells: Xenopus laevis oocytes injected with cRNA
Protocol: as §1, with “Oocytes were injected with 20–50 nL of cRNA at a concentration of 1 ng·nL^−1 using a microinjector (Drummond Scientific, Broomall, PA, USA). The oocytes were stored for 1–3 days at 16 °C until sufficient expression of voltage-gated ion channels was achieved. Oocytes were maintained in an ND96 solution (in mM: 96 NaCl, 2 KCl, 1.8 CaCl2, 2 MgCl2 and 5 HEPES; pH 7.4), supplemented with 50 µg·mL^−1 gentamicin sulfate.” left out
as §3

T2 sequence (P17659 whole entry): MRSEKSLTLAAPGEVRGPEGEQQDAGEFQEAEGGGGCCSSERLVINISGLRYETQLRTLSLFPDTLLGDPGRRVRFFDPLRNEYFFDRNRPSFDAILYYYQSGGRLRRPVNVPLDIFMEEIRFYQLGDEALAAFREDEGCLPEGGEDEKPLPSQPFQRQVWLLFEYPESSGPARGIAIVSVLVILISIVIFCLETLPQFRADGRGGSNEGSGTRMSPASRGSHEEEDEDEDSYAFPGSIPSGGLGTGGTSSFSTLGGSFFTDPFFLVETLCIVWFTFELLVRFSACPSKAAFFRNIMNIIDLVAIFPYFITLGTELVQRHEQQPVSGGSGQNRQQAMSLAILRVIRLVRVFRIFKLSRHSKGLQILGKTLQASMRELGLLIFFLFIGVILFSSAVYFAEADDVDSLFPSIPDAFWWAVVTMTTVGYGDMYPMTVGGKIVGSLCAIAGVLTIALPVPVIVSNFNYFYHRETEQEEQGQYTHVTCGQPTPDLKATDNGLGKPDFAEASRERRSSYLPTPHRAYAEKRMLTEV
T1 sequence (P10499 whole entry): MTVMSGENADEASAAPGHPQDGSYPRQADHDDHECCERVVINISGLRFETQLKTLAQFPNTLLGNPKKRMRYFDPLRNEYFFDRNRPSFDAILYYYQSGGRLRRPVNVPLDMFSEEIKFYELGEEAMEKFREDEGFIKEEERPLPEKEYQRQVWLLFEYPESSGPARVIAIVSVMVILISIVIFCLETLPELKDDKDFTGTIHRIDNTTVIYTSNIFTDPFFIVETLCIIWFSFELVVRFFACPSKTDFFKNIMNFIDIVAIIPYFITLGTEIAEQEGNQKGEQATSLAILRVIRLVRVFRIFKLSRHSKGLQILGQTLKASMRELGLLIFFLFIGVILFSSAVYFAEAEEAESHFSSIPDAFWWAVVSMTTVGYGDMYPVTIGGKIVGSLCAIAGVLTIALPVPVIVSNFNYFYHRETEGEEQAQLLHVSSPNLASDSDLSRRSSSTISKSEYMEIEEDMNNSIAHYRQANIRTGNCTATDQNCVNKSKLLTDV
T5 sequence (P08510 with tags, fused parts or gaps DEL6-46): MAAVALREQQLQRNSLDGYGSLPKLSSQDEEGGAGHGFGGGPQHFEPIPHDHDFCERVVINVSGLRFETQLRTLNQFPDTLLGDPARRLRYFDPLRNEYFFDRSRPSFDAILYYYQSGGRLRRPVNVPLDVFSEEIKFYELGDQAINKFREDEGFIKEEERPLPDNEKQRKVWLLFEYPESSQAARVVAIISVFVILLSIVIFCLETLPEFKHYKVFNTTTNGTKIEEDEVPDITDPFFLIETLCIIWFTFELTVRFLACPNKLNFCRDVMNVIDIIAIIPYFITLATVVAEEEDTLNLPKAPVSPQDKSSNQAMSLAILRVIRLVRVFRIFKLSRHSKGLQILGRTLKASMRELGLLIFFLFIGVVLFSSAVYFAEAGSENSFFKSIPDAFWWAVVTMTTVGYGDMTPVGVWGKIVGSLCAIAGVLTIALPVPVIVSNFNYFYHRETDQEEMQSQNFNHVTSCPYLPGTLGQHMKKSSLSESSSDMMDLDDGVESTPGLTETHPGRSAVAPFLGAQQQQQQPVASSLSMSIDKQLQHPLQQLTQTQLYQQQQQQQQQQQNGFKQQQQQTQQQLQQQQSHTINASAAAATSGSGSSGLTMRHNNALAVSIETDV
T8 sequence (P15390 whole entry): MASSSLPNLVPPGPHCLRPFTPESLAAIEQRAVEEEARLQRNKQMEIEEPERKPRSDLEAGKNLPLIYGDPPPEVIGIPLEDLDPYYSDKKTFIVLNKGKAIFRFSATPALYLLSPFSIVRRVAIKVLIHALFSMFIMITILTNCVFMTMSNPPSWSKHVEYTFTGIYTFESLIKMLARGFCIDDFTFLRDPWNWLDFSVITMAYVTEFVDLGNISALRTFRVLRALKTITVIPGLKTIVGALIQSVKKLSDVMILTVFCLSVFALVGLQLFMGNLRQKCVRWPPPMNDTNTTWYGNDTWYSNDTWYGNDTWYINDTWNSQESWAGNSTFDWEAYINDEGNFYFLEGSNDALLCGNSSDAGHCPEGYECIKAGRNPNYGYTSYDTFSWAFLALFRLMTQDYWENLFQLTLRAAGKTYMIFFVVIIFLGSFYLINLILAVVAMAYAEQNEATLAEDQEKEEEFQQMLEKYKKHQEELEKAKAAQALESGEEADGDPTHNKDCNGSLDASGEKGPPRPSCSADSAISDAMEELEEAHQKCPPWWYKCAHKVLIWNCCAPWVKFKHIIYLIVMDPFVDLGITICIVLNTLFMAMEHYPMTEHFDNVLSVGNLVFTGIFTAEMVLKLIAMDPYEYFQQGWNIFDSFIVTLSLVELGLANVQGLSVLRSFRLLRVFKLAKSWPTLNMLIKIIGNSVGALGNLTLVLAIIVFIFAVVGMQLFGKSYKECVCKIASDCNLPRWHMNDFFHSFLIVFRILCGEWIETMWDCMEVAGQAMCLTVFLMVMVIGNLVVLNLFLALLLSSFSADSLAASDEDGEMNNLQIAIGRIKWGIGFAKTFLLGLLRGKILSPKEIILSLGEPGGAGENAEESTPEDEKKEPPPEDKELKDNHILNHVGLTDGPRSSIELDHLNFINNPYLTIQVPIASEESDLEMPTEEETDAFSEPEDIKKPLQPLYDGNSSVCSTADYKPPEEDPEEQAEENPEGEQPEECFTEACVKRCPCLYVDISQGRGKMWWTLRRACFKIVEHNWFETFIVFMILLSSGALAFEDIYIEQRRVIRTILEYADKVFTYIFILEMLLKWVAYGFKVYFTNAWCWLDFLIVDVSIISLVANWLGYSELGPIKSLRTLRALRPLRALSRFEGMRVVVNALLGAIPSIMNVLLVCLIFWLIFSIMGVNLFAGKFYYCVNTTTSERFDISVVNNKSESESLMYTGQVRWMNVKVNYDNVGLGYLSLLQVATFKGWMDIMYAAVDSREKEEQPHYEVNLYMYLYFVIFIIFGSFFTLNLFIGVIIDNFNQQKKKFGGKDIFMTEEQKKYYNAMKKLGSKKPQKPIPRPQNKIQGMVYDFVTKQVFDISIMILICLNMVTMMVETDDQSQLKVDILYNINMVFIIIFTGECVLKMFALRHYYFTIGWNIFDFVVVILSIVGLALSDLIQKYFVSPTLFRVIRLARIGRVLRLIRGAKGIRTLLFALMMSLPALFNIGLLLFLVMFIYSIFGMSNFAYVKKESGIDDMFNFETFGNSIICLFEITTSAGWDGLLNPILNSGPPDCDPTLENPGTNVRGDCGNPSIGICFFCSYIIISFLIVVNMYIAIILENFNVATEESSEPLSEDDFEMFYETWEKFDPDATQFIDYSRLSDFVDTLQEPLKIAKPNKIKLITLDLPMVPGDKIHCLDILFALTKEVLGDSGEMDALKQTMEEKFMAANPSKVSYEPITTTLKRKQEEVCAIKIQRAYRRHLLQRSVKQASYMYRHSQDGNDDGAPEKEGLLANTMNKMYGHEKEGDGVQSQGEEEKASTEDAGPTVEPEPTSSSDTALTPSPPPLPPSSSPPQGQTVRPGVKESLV
T6 sequence (Q12809 whole entry): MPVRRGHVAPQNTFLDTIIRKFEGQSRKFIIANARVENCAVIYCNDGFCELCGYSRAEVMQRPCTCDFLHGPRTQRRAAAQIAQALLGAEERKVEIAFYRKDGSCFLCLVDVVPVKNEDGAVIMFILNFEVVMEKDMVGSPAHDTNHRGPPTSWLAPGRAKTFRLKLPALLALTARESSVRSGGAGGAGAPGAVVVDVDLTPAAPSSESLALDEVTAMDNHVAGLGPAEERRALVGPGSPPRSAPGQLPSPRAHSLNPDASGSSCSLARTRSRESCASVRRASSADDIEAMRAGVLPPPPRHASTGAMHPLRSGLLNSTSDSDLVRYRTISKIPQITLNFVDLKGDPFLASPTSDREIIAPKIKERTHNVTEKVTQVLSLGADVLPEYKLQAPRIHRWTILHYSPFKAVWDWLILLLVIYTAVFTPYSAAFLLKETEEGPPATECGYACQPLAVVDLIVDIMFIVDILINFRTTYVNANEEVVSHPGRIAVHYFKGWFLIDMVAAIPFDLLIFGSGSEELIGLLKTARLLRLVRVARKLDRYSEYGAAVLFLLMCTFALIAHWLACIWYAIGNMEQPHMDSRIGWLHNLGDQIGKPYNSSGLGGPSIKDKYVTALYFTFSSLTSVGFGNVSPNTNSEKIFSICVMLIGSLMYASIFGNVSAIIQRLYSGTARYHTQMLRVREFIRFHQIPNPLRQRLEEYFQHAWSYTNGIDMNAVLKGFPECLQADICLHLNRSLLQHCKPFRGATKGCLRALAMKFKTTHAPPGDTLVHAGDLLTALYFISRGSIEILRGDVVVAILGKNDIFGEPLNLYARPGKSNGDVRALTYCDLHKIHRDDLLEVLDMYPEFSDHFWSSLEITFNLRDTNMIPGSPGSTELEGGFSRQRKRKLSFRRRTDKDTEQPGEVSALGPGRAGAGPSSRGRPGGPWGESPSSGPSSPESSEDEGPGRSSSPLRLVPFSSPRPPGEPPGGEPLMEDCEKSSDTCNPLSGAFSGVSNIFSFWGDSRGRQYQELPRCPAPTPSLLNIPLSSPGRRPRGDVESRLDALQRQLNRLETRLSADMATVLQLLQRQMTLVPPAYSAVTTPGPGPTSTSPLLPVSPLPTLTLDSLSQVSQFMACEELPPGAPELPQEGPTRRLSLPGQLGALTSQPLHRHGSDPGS

Row | Compound | IC50 (rKV1.1; mean ± SE, n ≥ 3, SEM) [nM] | IC50 (rKV1.6; mean ± SE, n ≥ 3, SEM) [nM] | inhibition at 3 µM (rKV1.1; 3 µM AbeTx1, TEVC, X. laevis oocytes, 500 ms depolarization to 0 mV from holding −90 mV, mean ± SE, n ≥ 3, SEM, read-out: inhibition of KV1.1 current) [%] | reduction of KV1.1 current, toxin added on top of TEA (rKV1.1; AbeTx1 600 nM applied to bath already containing 200 μM TEA, n = 6) [%] | reduction of the KV1.1 K+ current at +70 mV (rKV1.1; AbeTx1 600 nM, test potential +70 mV from holding −90 mV, n = 6) [%] | reduction of the KV1.1 K+ current at −20 mV (rKV1.1; AbeTx1 600 nM, test potential −20 mV from holding −90 mV, n = 6) [%] | inhibition at 3 µM (rKV1.2) [%] | inhibition at 3 µM (hKV1.3) [%] | inhibition at 3 µM (rKV1.6; 3 µM AbeTx1, TEVC, X. laevis oocytes, 500 ms depolarization to 0 mV from holding −90 mV, mean ± SE, n ≥ 3, SEM, read-out: inhibition of KV1.6 current) [%] | reduction of KV1.6 current, toxin added on top of TEA (rKV1.6; AbeTx1 120 nM applied to bath already containing 920 μM TEA) [%] | inhibition at 3 µM (Shaker IR) [%] | effect on KV11.1 (hERG) current (hERG) | activity on NaV1.2 (rNaV1.2) | activity on NaV1.4 (rNaV1.4)
1 | C[C@@H]1NC(=O)CNC(=O)[C@H](CCCCN)NC(=O)[C@H](CO)NC(=O)[C@@H]2CSSC[C@H](NC1=O)C(=O)N[C@@H](CCCNC(=N)N)C(=O)N1CCC[C@H]1C(=O)N[C@@H](CCCCN)C(=O)N1CCC[C@H]1C(=O)N[C@@H](CC(N)=O)C(=O)N[C@H](C(=O)NCC(=O)O)CSSC[C@H](NC(=O)[C@@H](N)CCCNC(=N)N)C(=O)N[C@@H](CCCCN)C(=O)N[C@@H]([C@@H](C)O)C(=O)N2 [Arg9Ala] (H-RCKTCSKGACRPKPNCG-OH; disulfide 2-16, 5-10) | 8500 | 2440 |  |  |  |  |  |  |  |  |  |  |  | 
2 | C[C@@H](O)[C@@H]1NC(=O)[C@H](CCCCN)NC(=O)[C@@H](NC(=O)[C@@H](N)CCCNC(=N)N)CSSC[C@@H](C(=O)NCC(=O)O)NC(=O)[C@H](CC(N)=O)NC(=O)[C@@H]2CCCN2C(=O)[C@H](CCCCN)NC(=O)[C@@H]2CCCN2C(=O)[C@H](CCCNC(=N)N)NC(=O)[C@@H]2CSSC[C@H](NC1=O)C(=O)N[C@@H](CO)C(=O)N[C@@H](CCCCN)C(=O)NCC(=O)N[C@@H](CCCNC(=N)N)C(=O)N2 [AbeTx1] (H-RCKTCSKGRCRPKPNCG-OH; disulfide 2-16, 5-10) | 672 ± 150 | 116 ± 31.4 | 83.7 ± 1.45 | 71.20 ± 2.18 | 11.07 ± 1.12 | 53.47 ± 5.07 | 95.3 ± 1.45 | 19.7 ± 2.18 | 95 ± 2.44 | 55.33 ± 2.47 | 15.5 ± 1.8 | not affected | no activity | no activity
